# Results from US20250381168A1, “VLA4 INHIBITORS AND USES THEREOF” (Washington University, priority 2022, published 2025).
# “Also recorded” adds a separate entry of the source. Read-outs that look alike come from different tables or passages of the source.
# Tests used:
# VLA-4 (a4b1) = VLA-4 (a4b1) (Homo sapiens (Human), UniProt P05556+P13612); test: sVCAM flow cytometry cell-based assay (inhibition of soluble VCAM-1 binding to G2 ALL cells);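 note: compounds at 0.1 to 1000 nM preincubated 30 min with G2 ALL cells, then VCAM/Fc added for 30 min, bound VCAM-1 detected by PE secondary antibody, percent binding cells by flow cytometry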
# VLA-4 (a4b1), sequence (P13612 34-1032): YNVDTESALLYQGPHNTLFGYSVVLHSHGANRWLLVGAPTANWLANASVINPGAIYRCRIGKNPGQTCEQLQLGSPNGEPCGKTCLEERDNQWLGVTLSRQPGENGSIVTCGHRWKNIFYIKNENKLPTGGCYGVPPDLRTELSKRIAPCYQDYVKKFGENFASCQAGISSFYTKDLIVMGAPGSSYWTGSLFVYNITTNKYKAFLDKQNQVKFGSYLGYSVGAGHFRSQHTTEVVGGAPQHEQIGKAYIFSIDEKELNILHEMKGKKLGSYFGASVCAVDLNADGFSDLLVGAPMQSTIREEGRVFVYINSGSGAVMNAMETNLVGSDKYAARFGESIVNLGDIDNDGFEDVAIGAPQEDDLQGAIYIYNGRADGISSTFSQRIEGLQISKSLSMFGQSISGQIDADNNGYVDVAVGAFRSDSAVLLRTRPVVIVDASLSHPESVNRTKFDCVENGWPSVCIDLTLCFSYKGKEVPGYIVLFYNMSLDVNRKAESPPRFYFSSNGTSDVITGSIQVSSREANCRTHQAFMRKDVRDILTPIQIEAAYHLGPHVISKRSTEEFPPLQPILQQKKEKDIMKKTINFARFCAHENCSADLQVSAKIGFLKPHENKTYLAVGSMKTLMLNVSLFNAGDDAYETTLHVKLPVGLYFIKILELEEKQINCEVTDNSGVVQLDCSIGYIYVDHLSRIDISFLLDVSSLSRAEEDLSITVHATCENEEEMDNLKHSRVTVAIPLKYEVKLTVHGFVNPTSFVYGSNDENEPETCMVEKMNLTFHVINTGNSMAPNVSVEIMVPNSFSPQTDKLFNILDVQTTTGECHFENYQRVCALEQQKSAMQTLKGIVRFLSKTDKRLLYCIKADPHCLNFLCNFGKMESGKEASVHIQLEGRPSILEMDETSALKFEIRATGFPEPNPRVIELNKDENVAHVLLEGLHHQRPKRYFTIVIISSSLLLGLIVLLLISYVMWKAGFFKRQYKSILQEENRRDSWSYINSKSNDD
# VLA-4 (a4b1), sequence (P05556 21-798): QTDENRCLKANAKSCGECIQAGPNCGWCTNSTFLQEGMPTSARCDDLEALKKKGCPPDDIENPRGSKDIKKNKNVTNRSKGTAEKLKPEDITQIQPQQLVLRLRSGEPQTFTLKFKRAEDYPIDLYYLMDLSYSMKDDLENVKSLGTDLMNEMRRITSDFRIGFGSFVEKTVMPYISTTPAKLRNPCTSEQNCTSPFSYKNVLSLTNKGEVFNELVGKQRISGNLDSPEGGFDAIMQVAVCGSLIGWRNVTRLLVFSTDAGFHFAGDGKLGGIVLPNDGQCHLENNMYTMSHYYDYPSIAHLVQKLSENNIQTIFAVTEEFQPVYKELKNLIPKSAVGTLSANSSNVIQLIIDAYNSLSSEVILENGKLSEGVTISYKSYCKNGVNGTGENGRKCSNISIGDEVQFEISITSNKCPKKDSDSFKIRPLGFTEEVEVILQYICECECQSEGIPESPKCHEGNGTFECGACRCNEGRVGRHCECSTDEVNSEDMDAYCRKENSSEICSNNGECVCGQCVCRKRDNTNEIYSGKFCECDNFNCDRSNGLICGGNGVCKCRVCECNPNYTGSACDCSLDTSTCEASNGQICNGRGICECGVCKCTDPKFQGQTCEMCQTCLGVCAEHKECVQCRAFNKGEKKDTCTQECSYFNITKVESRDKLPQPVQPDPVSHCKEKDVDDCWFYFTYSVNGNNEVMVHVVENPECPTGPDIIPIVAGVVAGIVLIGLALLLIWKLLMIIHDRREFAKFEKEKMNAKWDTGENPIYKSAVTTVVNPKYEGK
# Method: VLA-4 (a4b1) inhibitor compounds were tested for their ability to inhibit the binding of soluble VCAM-1 to human G2 acute lymphoblastic leukemia (ALL) cells. Briefly, G2 ALL cells are pre-incubated with increasing concentrations (0.1 to 1000 nM) of compounds for 30 minutes. Soluble VCAM/Fc chimera protein (R & D systems) is then added to the mixture and the cells incubated for an additional 30 minutes. Afterwards, cells are washed and VCAM-1 is detected using a PE-conjugated secondary polyclonal antibody. In each experiment, an aliquot of cells are stained with isotype control antibodies to serve as a negative control. The percentage of VCAM-1 binding cells was then determined by flow cytometry.
# [1] = tested on: hematopoietic stem/progenitor cells (HSPCs); test: HSPC mobilization into peripheral blood, colony forming unit (CFU) assay; conditions: mice
# Method: HSPC mobilization. […] For those that dissolve in straight saline, a 0.2 mL dose, diluted with saline from the stock solution to provide the target dose (in mg/kg), was injected s.c. to each test mouse.
# When doing combination studies with the VLA4 inhibitor plus a CXCR4 inhibitor and/or a CXCL2 agonist, the other agents were dosed as follows:
# The CXCR4 inhibitor AMD3100 (Mozobil®, Genzyme, Cambridge, MA, USA) suspension was prepared in PBS and administered s.c. at a dose of 5 mg/kg.
# Recombinant human CXCL2 (Groβt; R & D systems) was reconstituted in sterile Ca^+2/Mg^+2-free phosphate buffered saline (PBS) and injected subcutaneously (s.c.) at a dose of 2.5 mg/kg.
# Colony forming unit (CFU) assay. Peripheral blood (PB) was drawn from the facial vein without anaesthesia into K/EDTA anti-coagulated tubes (Sarstedt AG & Co, NOmbrecht, Germany) at various time points post dosing of the test compounds. Red blood cells were removed from aliquots of blood using hypotonic lysis (Ammonium-Chloride-Potassium, ACK buffer, 5-10 min at RT) and samples were mixed with 2 mL mouse methylcellulose complete media, supplemented with a cocktail of recombinant cytokines (HS0007; R & D Systems, Minneapolis, USA). Cultures were plated in duplicate in 35 mm dishes and placed in a humidified chamber with 5% CO2 at 37° C. After 7 d of culture, colonies containing at least 50 cells were counted using an inverted microscope in a blinded fashion.
# [2] = inhibition of sVCAM-1 binding to human G2 ALL cells (TABLE 3), read-out: SVCAM-1, IC50
smiles,measurement,setting,value
COc1cc(CO)cc(OC)c1-c1ccc(C[C@H](NC(=O)c2c(Cl)cc(C(=O)O)cc2Cl)C(=O)O)cc1 [Example C2],IC50,"VLA-4 (a4b1); as listed in TABLE 5, read-out: sVCAM IC50",3.83 nM
same,IC50,VLA-4 (a4b1); [2],3.83 nM
same,"No. CFU (×10^3)/mL ± SD, 0.25 hr","[1]; single s.c. injection, peripheral blood, 0.25 hr post dose (TABLE 5)",4.08 ± 1.66 (×10^3)/mL
same,"No. CFU (×10^3)/mL ± SD, 2 hr","[1]; single s.c. injection, peripheral blood, 2 hr post dose (TABLE 5)",2.87 ± 1.47 (×10^3)/mL
same,"No. CFU (×10^3)/mL ± SD, 4 hr","[1]; single s.c. injection, peripheral blood, 4 hr post dose (TABLE 5)",0.53 ± 0.30 (×10^3)/mL
"CCOCc1cc(OC)c(-c2ccc(C[C@H](NC(=O)c3c(F)cccc3F)C(=O)O)cc2)c(OC)c1 [Firategrast, firategrast]","No. CFU (×10^3)/mL ± SD, 1 hr","[1]; single dose, peripheral blood, 1 hr post dose (TABLE 20)",0.34 ± 0.12 (×10^3)/mL
same,"No. CFU (×10^3)/mL ± SD, 4 hr","[1]; single dose, peripheral blood, 4 hr post dose (TABLE 20)",0.24 ± 0.14 (×10^3)/mL
same,"No. CFU (×10^3)/mL ± SD, 8 hr","[1]; single dose, peripheral blood, 8 hr post dose (TABLE 20)",0.24 ± 0.14 (×10^3)/mL
"c1cc(CN2CCCNCCNCCCNCC2)ccc1CN1CCCNCCNCCCNCC1 [AMD3100, plerixafor]","No. CFU (×10^3)/mL ± SD, 2 hr","[1]; single dose alone or in combination with AMD3100 (5 mg/kg s.c.), peripheral blood, 2 hr (TABLE 14)",3.42 ± 1.42 (×10^3)/mL
same,"No. CFU (×10^3)/mL ± SD, 3 hr","[1]; single dose alone or in combination with AMD3100 (5 mg/kg s.c.), peripheral blood, 3 hr (TABLE 14)",5.08 ± 2.32 (×10^3)/mL
same,"No. CFU (×10^3)/mL ± SD, 5 hr","[1]; single dose alone or in combination with AMD3100 (5 mg/kg s.c.), peripheral blood, 5 hr (TABLE 14)",2.38 ± 0.73 (×10^3)/mL
"COCCOCCOCCOCCOCCOCCOCCOCCOCCOCCOCCOCCOCc1cc(OC)c(-c2ccc(C[C@H](NC(=O)[C@@H]3CCCN3S(=O)(=O)c3cc(Cl)cc(Cl)c3)C(=O)O)cc2)c(OC)c1 [Example C13, (S)-2-((S)-1-((3,5-dichlorophenyl)sulfonyl)pyrrolidine-2-carboxamido)-3-(2′,6′-dimethoxy-4′-(2,5,8,11,14,17,20,23,26,29,32,35,38-tridecaoxanonatriacontyl)-[1,1′-biphenyl]-4-yl)propanoic Acid]",IC50,"VLA-4 (a4b1); as listed in TABLE 9, read-out: sVCAM IC50",0.673 nM
same,IC50,VLA-4 (a4b1); [2],0.673 nM
same,"HSPC mobilization, result in words",[1]; single dose,returning to baseline by 4 hours and clearly at baseline by 6 hours
same,"No. CFU (×10^3)/mL ± SD, 2 hr","[1]; single dose, peripheral blood, 2 hr post dose (TABLE 9)",2.01 ± 0.75 (×10^3)/mL
same,"No. CFU (×10^3)/mL ± SD, 4 hr","[1]; single dose, peripheral blood, 4 hr post dose (TABLE 9)",0.41 ± 0.19 (×10^3)/mL
same,"No. CFU (×10^3)/mL ± SD, 6 hr","[1]; single dose, peripheral blood, 6 hr post dose (TABLE 9)",0.10 ± 0.04 (×10^3)/mL
"COCCOCCOCCOCCOCCOCCOCCOCCOCCOCCOCCOCCOCCOCCOCCOCCOCCOCCOCCOCCOCCOCCOCCOCCOCCOCCOCCOCCOCCOCCOCCOCCOCCOCCOCCOCCn1cc(COCc2cc(OC)c(-c3ccc(C[C@H](NC(=O)[C@@H]4CCCN4S(=O)(=O)c4cc(Cl)cc(Cl)c4)C(=O)O)cc3)c(OC)c2)nn1 [Example C10, (S)-3-(4′-(((1-(2,5,8,11,14,17,20,23,26,29,32,35,38,41,44,47,50,53,56,59,62,65,68,71,74,77,80,83, 86,89,92,95,98,101,104,107-hexatriacontaoxanonahectan-109-yl)-1H-1,2,3-triazol-4-yl)methoxy)methyl)-2′,6′-dimethoxy-[1,1′-biphenyl]-4-yl)-2-((S)-1-((3,5-dichlorophenyl)sulfonyl)pyrrolidine-2-carboxamido)propanoic Acid]",IC50,"VLA-4 (a4b1); as listed in TABLE 8, read-out: sVCAM IC50",0.552 nM
same,IC50,VLA-4 (a4b1); [2],0.552 nM
same,"HSPC mobilization, result in words",[1]; single dose,returning to baseline by 4 hours; also recorded: inferior mobilization at 4 hours compared to Example 3
same,"No. CFU (×10^3)/mL ± SD, 0.25 hr","[1]; single dose, peripheral blood, 0.25 hr post dose (TABLE 8)",3.87 ± 1.33 (×10^3)/mL
same,"No. CFU (×10^3)/mL ± SD, 2 hr","[1]; single dose, peripheral blood, 2 hr post dose (TABLE 8)",3.37 ± 1.12 (×10^3)/mL
same,"No. CFU (×10^3)/mL ± SD, 4 hr","[1]; single dose, peripheral blood, 4 hr post dose (TABLE 8)",0.90 ± 0.52 (×10^3)/mL
"c1cc(CN2CCCNCCNCCCNCC2)ccc1CN1CCCNCCNCCCNCC1 [Plerixafor, plerixafor]","No. CFU (x10^3)/mL ± SD, 4 hr","[1]; single dose alone or in combination with Plerixafor (5 mg/kg s.c.), peripheral blood, 4 hr (TABLE 15)",1.25 ± 0.30 (x10^3)/mL
same,"No. CFU (x10^3)/mL ± SD, 6 hr","[1]; single dose alone or in combination with Plerixafor (5 mg/kg s.c.), peripheral blood, 6 hr (TABLE 15)",0.28 ± 0.12 (x10^3)/mL
same,"No. CFU (x10^3)/mL ± SD, 24 hr","[1]; single dose alone or in combination with Plerixafor (5 mg/kg s.c.), peripheral blood, 24 hr (TABLE 15)",0.22 ± 0.08 (x10^3)/mL
COc1cc(CO)cc(OC)c1-c1ccc(C[C@H](NC(=O)[C@@H]2CCCN2S(=O)(=O)c2cc(Cl)cc(Cl)c2)C(=O)O)cc1 [Example C8],IC50,"VLA-4 (a4b1); as listed in TABLE 6, read-out: sVCAM IC50",0.199 nM
same,IC50,"VLA-4 (a4b1); as listed in TABLE 7, read-out: sVCAM IC50",0.199 nM
same,IC50,VLA-4 (a4b1); [2],0.199 nM
same,"HSPC mobilization, result in words",[1]; single dose,have returned to baseline
same,"No. CFU (×10^3)/mL ± SD, 0.5 hr","[1]; single dose, peripheral blood, 0.5 hr post dose (TABLE 7)",0.85 ± 0.30 (×10^3)/mL
same,"No. CFU (×10^3)/mL ± SD, 2 hr","[1]; single dose, peripheral blood, 2 hr post dose (TABLE 7)",0.87 ± 0.30 (×10^3)/mL
same,"No. CFU (×10^3)/mL ± SD, 4 hr","[1]; single dose, peripheral blood, 4 hr post dose (TABLE 7)",0.27 ± 0.36 (×10^3)/mL
same,"No. CFU (×10^3)/mL ± SD, 0.25 hr","[1]; single s.c. injection, peripheral blood, 0.25 hr post dose (TABLE 6)",2.74 ± 0.69 (×10^3)/mL
same,"No. CFU (×10^3)/mL ± SD, 2 hr","[1]; single s.c. injection, peripheral blood, 2 hr post dose (TABLE 6)",2.10 ± 0.85 (×10^3)/mL
same,"No. CFU (×10^3)/mL ± SD, 4 hr","[1]; single s.c. injection, peripheral blood, 4 hr post dose (TABLE 6)",0.42 ± 0.15 (×10^3)/mL
